From patent US10287301B2 (Achillion Pharmaceuticals, Inc., priority 2015, dated 2019) come the findings set out here.

Usually IC50 stands for the point on the concentration scale where inhibition reaches its midpoint.

Where only a bound is given, the exact number is not on record here.

In the first assay the target is Human Factor D (Homo sapiens (Human), UniProt P00746). The experiment in a line: Human Factor D Assay. The format is biochemical. Conditions: Table 3; Human Factor D 80 nM, substrate Z-L-Lys-SBzl; read-out: IC50 (Stars). The procedure, abridged: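 First, compound at various concentrations is mixed with 80 nM (final) human serum Factor D in 50 mM Tris, 1M NaCl, pH 7.5 for 5 min at room temperature.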
Human Factor D, sequence (P00746 26-253): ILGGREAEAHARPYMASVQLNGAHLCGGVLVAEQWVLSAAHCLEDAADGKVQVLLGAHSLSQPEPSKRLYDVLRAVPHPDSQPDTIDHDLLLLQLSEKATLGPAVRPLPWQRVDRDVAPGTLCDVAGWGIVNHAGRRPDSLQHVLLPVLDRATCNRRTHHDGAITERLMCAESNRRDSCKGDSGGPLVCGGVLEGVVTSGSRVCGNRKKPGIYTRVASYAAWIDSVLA
For the compound `CC(=O)c1nn(CC(=O)N2C[C@H](F)C[C@H]2C(=O)Nc2cccc(Br)n2)c2cc(C(=O)N(C)C)c(-c3cnc(C)nc3)cc12` [Compound 362, 3-acetyl-1-(2-((2S,4R)-2-((6-bromopyridin-2-yl)carbamoyl)-4-fluoropyrrolidin-1-yl)-2-oxoethyl)-N,N-dimethyl-5-(2-methylpyrimidin-5-yl)-1H-indazole-6-carboxamide], the IC50 is under 1 µM.

Take `CC(=O)c1nn(CC(=O)N2[C@@H]3C[C@@H]3C[C@H]2C(=O)Nc2ccn(CC(F)(F)F)n2)c2ccc(-c3cnc(C)nc3)cc12` [Compound 363, (1R,3S,5R)-2-(2-(3-acetyl-5-(2-methylpyrimidin-5-yl)-1H-indazol-1-yl)acetyl)-N-(1-(2,2,2-trifluoroethyl)-1H-pyrazol-3-yl)-2-azabicyclo[3.1.0] hexane-3-carboxamide]: the 50% inhibitory concentration (IC50) was under 1 µM.

For the compound `CC(=O)c1nn(CC(=O)N2[C@@H]3C[C@@H]3C[C@H]2C(=O)Nc2cccc(Br)n2)c2ccc(-c3cnc(N)nc3)cc12` [Compound 364, (1R,3S,5R)-2-(2-(3-Acetyl-5-(2-aminopyrimidin-5-yl)-1H-indazol-1-yl)acetyl)-N-(6-bromopyridin-2-yl)-2-azabicyclo[3.1.0]hexane-3-carboxamide], the IC50 is under 1 µM.

Take `CC(=O)c1nn(CC(=O)N2[C@@H]3C[C@@H]3C[C@H]2C(=O)Nc2cnc(C)c(Br)n2)c2ccc(-c3cnc(C)nc3)cc12` [Compound 365, (1R,3S,5R)-2-(2-(3-Acetyl-5-(2-methylpyrimidin-5-yl)-1H-indazol-1-yl)acetyl)-N-(6-bromo-5-methylpyrazin-2-yl)-2-azabicyclo[3.1.0]hexane-3-carboxamide]: the IC50 is under 1 µM.

As for `COc1cc(Br)nc(NC(=O)[C@@H]2C[C@H]3C[C@H]3N2C(=O)Cn2nc(C(C)=O)c3cc(-c4cnc(C)nc4)ccc32)c1` [Compound 366], the IC50 was under 1 µM.

In the case of `CC(=O)c1nn(CC(=O)N2C[C@H](F)C[C@H]2C(=O)Nc2cccc(Br)n2)c2ccc(-c3cnc(NC4CC4)nc3)cc12` [Compound 367, (2S,4R)-1-(2-(3-Acetyl-5-(2-(cyclopropylamino)pyrimidin-5-yl)-1H-indazol-1-yl)acetyl)-N-(6-bromopyridin-2-yl)-4-fluoropyrrolidine-2-carboxamide], the half-maximal inhibitory concentration (IC50) was under 1 µM.

For `CC(=O)c1nn(CC(=O)N2C[C@H](F)C[C@H]2C(=O)Nc2cncc(Cl)n2)c2ccc(-c3cnc(C)nc3)cc12` [Compound 368, (2S,4R)-1-(2-(3-Acetyl-5-(2-methylpyrimidin-5-yl)-1H-indazol-1-yl)acetyl)-N-(6-chloropyrazin-2-yl)-4-fluoropyrrolidine-2-carboxamide], the half-inhibitory concentration (IC50) was under 1 µM.

For the compound `CC(=O)c1nn(CC(=O)N2C[C@H](F)C[C@H]2C(=O)Nc2cc(C(F)(F)F)cc(Br)n2)c2ccc(-c3cnc(C)nc3)cc12` [Compound 370, (2S,4R)-1-(2-(3-Acetyl-5-(2-methylpyrimidin-5-yl)-1H-indazol-1-yl)acetyl)-N-(6-bromo-4-(trifluoromethyl)pyridin-2-yl)-4-fluoropyrrolidine-2-carboxamide], the half-maximal inhibitory concentration (IC50) was under 1 µM.

As to `CC(=O)c1nn(CC(=O)N2[C@H](C(=O)Nc3cccc(Br)n3)C[C@@]3(C)C[C@@H]23)c2ccc(-c3cnc(C)nc3)cc12` [Compound 372, (1R,3S,5R)-2-(2-(3-Acetyl-5-(2-methylpyrimidin-5-yl)-1H-indazol-1-yl)acetyl)-N-(6-bromopyridin-2-yl)-5-methyl-2-azabicyclo[3.1.0]hexane-3-carboxamide], the IC50 is under 1 µM.

For the compound `COc1cc2c(cc1-c1cnc(C)nc1)c(C(C)=O)nn2CC(=O)N1C[C@H](F)C[C@H]1C(=O)Nc1cccc(Br)n1` [Compound 373, (2S,4R)-1-(2-(3-Acetyl-6-methoxy-5-(2-methylpyrimidin-5-yl)-1H-indazol-1-yl)acetyl)-N-(6-bromopyridin-2-yl)-4-fluoropyrrolidine-2-carboxamide], the IC50 is under 1 µM.

On to `CC(=O)c1nn(CC(=O)N2C[C@H](F)C[C@H]2C(=O)Nc2cccc(Br)n2)c2ccc(-c3cnc(CO)nc3)cc12` [Compound 374, (2S,4R)-1-(2-(3-Acetyl-5-(2-(hydroxymethyl)pyrimidin-5-yl)-1H-indazol-1-yl)acetyl)-N-(6-bromopyridin-2-yl)-4-fluoropyrrolidine-2-carboxamide], for which the IC50 is under 1 µM.

On to `CC(=O)c1nn(CC(=O)N2[C@@H]3C[C@@H]3C[C@H]2C(=O)Nc2cncc(Cl)n2)c2ccc(-c3cnc(C)nc3)cc12` [Compound 375, (1R,3S,5R)-2-(2-(3-Acetyl-5-(2-methylpyrimidin-5-yl)-1H-indazol-1-yl)acetyl)-N-(6-chloropyrazin-2-yl)-2-azabicyclo[3.1.0]hexane-3-carboxamide], for which the IC50 was under 1 µM.

Take `CC(=O)c1nn(CC(=O)N2C[C@H](F)C[C@H]2C(=O)Nc2ccnc(OCC(F)(F)F)n2)c2ccc(-c3cnc(C)nc3)cc12` [Compound 377, (2S,4R)-1-(2-(3-Acetyl-5-(2-methylpyrimidin-5-yl)-1H-indazol-1-yl)acetyl)-4-fluoro-N-(2-(2,2,2-trifluoroethoxy)pyrimidin-4-yl)pyrrolidine-2-carboxamide]: the IC50 was under 1 µM.

On to `CC(=O)c1nn(CC(=O)N2C[C@H](F)C[C@H]2C(=O)Nc2ncn(CC(F)(F)F)n2)c2ccc(-c3cnc(C)nc3)cc12` [Compound 378, (2S,4R)-1-(2-(3-Acetyl-5-(2-methylpyrimidin-5-yl)-1H-indazol-1-yl)acetyl)-4-fluoro-N-(1-(2,2,2-trifluoroethyl)-1H-1,2,4-triazol-3-yl)pyrrolidine-2-carboxamide], for which the IC50 was under 1 µM.

For the compound `CNc1ncc(-c2ccc3c(c2)c(C(C)=O)nn3CC(=O)N2[C@@H]3C[C@@H]3C[C@H]2C(=O)Nc2cncc(Br)n2)cn1` [Compound 379, (1R,3S,5R)-2-(2-(3-Acetyl-5-(2-(methylamino)pyrimidin-5-yl)-1H-indazol-1-yl)acetyl)-N-(6-bromopyrazin-2-yl)-2-azabicyclo[3.1.0]hexane-3-carboxamide], the half-inhibitory concentration (IC50) is under 1 µM.

In the case of `CC(=O)c1nn(CC(=O)N2[C@@H]3C[C@@H]3C[C@H]2C(=O)Nc2cncc(Br)n2)c2ccc(-c3cnc(NC4CC4)nc3)cc12` [Compound 380, (1R,3S,5R)-2-(2-(3-Acetyl-5-(2-(cyclopropylamino)pyrimidin-5-yl)-1H-indazol-1-yl)acetyl)-N-(6-bromopyrazin-2-yl)-2-azabicyclo[3.1.0]hexane-3-carboxamide], the IC50 is under 1 µM.

With `CC(=O)c1nn(CC(=O)N2C[C@H](F)C[C@H]2C(=O)Nc2cc(Br)n(C)n2)c2ccc(-c3cnc(C)nc3)cc12` [Compound 381, (2S,4R)-1-(2-(3-Acetyl-5-(2-methylpyrimidin-5-yl)-1H-indazol-1-yl)acetyl)-N-(5-bromo-1-methyl-1H-pyrazol-3-yl)-4-fluoropyrrolidine-2-carboxamide], the half-inhibitory concentration (IC50) is under 1 µM.

As for `CC(=O)c1nn(CC(=O)N2[C@H]3C[C@@]3(C)C[C@H]2C(=O)Nc2cccc(Br)n2)c2ccc(-c3cnc(C)nc3)cc12` [Compound 382, (1S,3S,5S)-2-(2-(3-Acetyl-5-(2-methylpyrimidin-5-yl)-1H-indazol-1-yl)acetyl)-N-(6-bromopyridin-2-yl)-5-methyl-2-azabicyclo[3.1.0]hexane-3-carboxamide], the concentration for half-maximal inhibition (IC50) was under 1 µM.

Consider `CC(=O)c1nn(CC(=O)N2[C@H]3C[C@@]3(CO)C[C@H]2C(=O)Nc2cccc(Br)n2)c2ccc(-c3cnc(C)nc3)cc12` [Compound 383, (1S,3S,5R)-2-(2-(3-Acetyl-5-(2-methylpyrimidin-5-yl)-1H-indazol-1-yl)acetyl)-N-(6-bromopyridin-2-yl)-5-(hydroxymethyl)-2-azabicyclo[3.1.0]hexane-3-carboxamide], for which the half-inhibitory concentration (IC50) is under 1 µM.

Regarding `COc1ncc(-c2ccc3c(c2)c(C(C)=O)nn3CC(=O)N2C[C@H](F)C[C@H]2C(=O)Nc2cccc(Br)n2)cn1` [Compound 384, (2S,4R)-1-(2-(3-Acetyl-5-(2-methoxypyrimidin-5-yl)-1H-indazol-1-yl)acetyl)-N-(6-bromopyridin-2-yl)-4-fluoropyrrolidine-2-carboxamide], the IC50 is under 1 µM.

With `COc1ncc(-c2ccc3c(c2)c(C(C)=O)nn3CC(=O)N2[C@@H]3C[C@@H]3C[C@H]2C(=O)Nc2cncc(Br)n2)cn1` [Compound 385, (1R,3S,5R)-2-(2-(3-Acetyl-5-(2-methoxypyrimidin-5-yl)-1H-indazol-1-yl)acetyl)-N-(6-bromopyrazin-2-yl)-2-azabicyclo[3.1.0]hexane-3-carboxamide], the IC50 was under 1 µM.

As to `CC(=O)c1nn(CC(=O)N2C[C@H](F)C[C@H]2C(=O)Nc2cccc(Br)n2)c2cc(CN(C)C)c(-c3cnc(C)nc3)cc12` [Compound 387, (2S,4R)-1-(2-(3-Acetyl-6-((dimethylamino)methyl)-5-(2-methylpyrimidin-5-yl)-1H-indazol-1-yl)acetyl)-N-(6-bromopyridin-2-yl)-4-fluoropyrrolidine-2-carboxamide], the 50% inhibitory concentration (IC50) is under 1 µM.

With `CCc1ncc(-c2ccc3c(c2)c(C(C)=O)nn3CC(=O)N2C[C@H](F)C[C@H]2C(=O)Nc2cncc(Br)n2)cn1` [Compound 388, (2S,4R)-1-(2-(3-Acetyl-5-(2-ethylpyrimidin-5-yl)-1H-indazol-1-yl)acetyl)-N-(6-bromopyrazin-2-yl)-4-fluoropyrrolidine-2-carboxamide], the IC50 was under 1 µM.

The assay is the same for the next values; noted with them: read-out: IC50 (Stars).
Turning to `Cc1ncc(-c2ccc3c(c2)c(C(C)O)nn3CC(=O)N2C[C@H](F)C[C@H]2C(=O)Nc2cccc(Br)n2)cn1` (stereo partly drawn) [Compound 361, (2S,4R)-N-(6-bromopyridin-2-yl)-4-fluoro-1-(2-(3-(1-hydroxyethyl)-5-(2-methylpyrimidin-5-yl)-1H-indazol-1-yl)acetyl)pyrrolidine-2-carboxamide], the IC50 lay in the range of 1 to 10 µM.

Turning to `Cc1ncc(-c2ccc3c(c2)c(C(C)O)nn3CC(=O)N2C[C@H](F)C[C@H]2C(=O)Nc2cccc(Br)n2)cn1` (stereo partly drawn) [Compound 376, (2S,4R)-N-(6-bromopyridin-2-yl)-4-fluoro-1-(2-(3-(1-hydroxyethyl)-5-(2-methylpyrimidin-5-yl)-1H-indazol-1-yl)acetyl)pyrrolidine-2-carboxamide], the IC50 was 1 to 10 µM.
